Experiment [1] concerns Collagen Induced Arthritis (CIA) in female Lewis rats. Kind of experiment: In vivo chronic study: Collagen Induced Arthritis (CIA). Particulars: 0.5 mg/Kg. Set-up: species or system rat. An excerpt:
Collagen Induced Arthritis (CIA) is a well characterized model of human rheumatoid arthritis (RA) that can be induced in susceptible animals following immunization with type II collagen (cII) in Freund's adjuvant. […] Pathophysiology of CIA consists of T cell component, as evidenced by increased infiltration of T-cells in joint synovium and also, by attenuation of CIA in T-cell deficient mice. CIA development involves B cell component too, as is evidenced by circulating cII antibody in disease animals and also, failure to develop the disease in xid mice/B cell deficient mice/CXCR5 null mice. […] See, Pine, “Inflammation and bone erosion are suppressed in models of rheumatoid arthritis following treatment with a novel Syk inhibitor”, Clin. Immunol., 2007, 124(3):244-57; Xiong cha, “Suppression of the onset and progression of collagen-induced arthritis in rats by QFGJS, a preparation from an anti-arthritic Chinese herbal formula”, J. Ethnopharmacology (2007) 110:39-48; and Stolina, “The evolving systemic and local biomarker milieu at different stages of disease progression in rat collagen induced arthritis”, Biomarkers (2008) 13(7-8):692-712, which are herein incorporated by reference.
Female Lewis rats (8 per group, 6-8 weeks old) were immunized on day 1 with type II collagen (Immunization grade Bovine type II; Chondrex; Cat #20021) emulsified with Complete Freund's Adjuvant (Sigma; Cat# F5881) at a final concentration of 1.2 mg/mL). For the initial immunization, the animals were injected at the base of the tail with 300 μg of the cII (0.25 mL/rat). A booster injection of the same type II collagen emulsified with Incomplete Freund's Adjuvant (Sigma, Cat #F5506) (0.25 mL/rat) was given to the animals on day 8 at the base of the tail (100 μg). The final cII concentration in the booster was […].
Animals with an arthritic score of ≥1 were grouped and dosing with test compound (30 mg/kg bid) or methotrexate (0.5 mg/kg) started between about day 12 to day 14, with daily dosing of their respective compounds continuing for 10 days.
Edema: Paw volumes are measured by Plethysmometry for the animals before induction of CIA (Basal readings) and on Day 1, 3, 6 and 9 of dosing period. Both hind paw volumes were measured and edema was calculated by subtracting from the basal mean.
Arthritic score: Animals were scored for the symptoms of arthritis every day starting from Day of onset of disease till the end of the study. Both the hind paws were scored and the total scores were averaged and compared with control. The scoring pattern was as follows:
The percent inhibition of Edema was calculated with respect to control by the formula: […]
The percent inhibition of Arthritic score was calculated with respect to control by the formula: […]
Means of different groups were compared with control using one way ANOVA followed by Dunnett's test. Significance is represented as follows.

The target of experiment [2] is Syk (356-635 amino acids) catalytic domain (Homo sapiens (Human), UniProt P43405). The experiment can be described thus: Inhibition of enzymatic Syk kinase activity (radiometric). The format is biochemical. Particulars: read-out: IC50 Syk. The gist of the method:
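Human Syk (356-635) kinase domain (0.035–7.5 ng/reaction) preincubated with compound 30 minutes at room temperature, then reacted with pG4T substrate, 100 μM ATP (stock) and γ-32P-ATP for 10 minutes at 30° C. Reaction stopped with HCl/ATP, spotted on P81 paper, washed and counted by scintillation. Percent inhibition versus no-compound counts.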

Experiment [3] concerns RBL2H3 cells. Kind of experiment: Degranulation assay: β-hexosaminidase release during immune complex mediated degranulation. Format: cell-based, rat. As to conditions: Rattus norvegicus, RBL-2H3; for inhibition at 1 µM: read-out: Degranulation % inhibition at 1 μM; for EC50: read-out: Degranulation EC50. A digest of the protocol: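 RBL2H3 cells sensitized overnight (or 24 h) with anti-DNP rat IgE, pretreated 15 min with compounds in 0.5% DMSO, then challenged with DNP-BSA for 45–60 min. β-Hexosaminidase in supernatant read fluorometrically (Ex 355/Em 460 nm) with β-NAG substrate, 30 min RT; % release/inhibition calculated.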

The target in experiment [4] is JAK2 (Homo sapiens (Human), UniProt O60674). The experiment can be described thus: Inhibition of enzymatic JAK2 kinase activity (TR-FRET). Format: biochemical. Particulars: read-out: IC50 JAK. A digest of the protocol:
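Enzyme preincubated with compound 30 min at RT, then Ulight-poly-GT substrate and ATP added for 60 min at RT. EDTA stop, Eu-antiphosphotyrosine antibody; TR-FRET ratio 665/615 nm (ex 340 nm), blank-corrected; % inhibition versus positive control.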
(In TR-FRET formats the signal depends on donor and acceptor labels being close together.)

[5] abbreviates: Assay Protocol B (96 well format).

The values that follow come from US10183944B2 (Asana Biosciences, LLC, priority 2011, dated 2019).

A word on the IC50: it is the concentration that gives 50% inhibition. One may read the inhibition as the percentage by which the read-out fell short of the control. What is called EC50 is the concentration giving half of the maximal effect.

Like-named read-outs stand apart in the source and are kept apart here.

JAK2, sequence (O60674 808-1132): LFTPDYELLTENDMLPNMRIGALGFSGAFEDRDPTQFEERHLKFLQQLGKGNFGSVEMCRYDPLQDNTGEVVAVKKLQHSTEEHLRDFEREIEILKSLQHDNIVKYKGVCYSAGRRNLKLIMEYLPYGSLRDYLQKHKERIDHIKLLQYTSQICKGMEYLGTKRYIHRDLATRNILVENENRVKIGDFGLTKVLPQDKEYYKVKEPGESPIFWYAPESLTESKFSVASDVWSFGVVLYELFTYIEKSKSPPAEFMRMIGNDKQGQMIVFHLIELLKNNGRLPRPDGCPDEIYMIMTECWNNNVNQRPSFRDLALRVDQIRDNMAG

On to `CN(Cc1cnc2nc(N)nc(N)c2n1)c1ccc(C(=O)N[C@@H](CCC(=O)O)C(=O)O)cc1` [Methotrexate, methotrexate, reference compound], for which the “Percent inhibition of Edema (Day 9 of dosing)” value in experiment [1] (Day 9 of dosing) stood at 6. The “Percent inhibition of Arthritic score (Day 10 of dosing)” value in experiment [1] (Day 10 of dosing) came to 15.
For the compound `O=c1[nH]ncc2nc(N3CCCCCC3)nc(Nc3ccc(CCN4CCN(CCO)CC4)cc3)c12` [Example 211, 2-(azepan-1-yl)-4-((4-(2-(4-(2-hydroxyethyl)piperazin-1-yl)ethyl)phenyl)amino)pyrimido[4,5-d]pyridazin-5(6H)-one], the IC50 in experiment [2] was less than 50 nM. For the same compound, in experiment [3] (setting [5]), the inhibition at 1 µM turned out to be 53% and the EC50 stood at 49 nM. The 50% inhibitory concentration (IC50) in experiment [4] is less than 50 nM.
Turning to `COc1cccc(-c2nc(Nc3ccc(N4CCC5(CC4)CC5C(=O)O)cc3)c3c(=O)[nH]ncc3n2)c1` (centres unmarked) [Example 47, 6-(4-((2-(3-methoxyphenyl)-5-oxo-5,6-dihydropyrimido[4,5-d]pyridazin-4-yl)amino)phenyl)-6-azaspiro[2.5]octane-1-carboxylic acid], in experiment [2], the concentration for half-maximal inhibition (IC50) is less than 100 nM. Besides, in experiment [3] (setting [5]), the inhibition at 1 µM turned out to be 100% and the concentration for a half-maximal effect (EC50) is 132 nM. Also, the IC50 in experiment [4] is less than 100 nM.
On to `O=C(O)CC1CCN(c2ccc(Nc3nc(N4CCCCCCC4)nc4cn[nH]c(=O)c34)cc2)CC1` [Example 88, 2-(1-(4-((2-(azocan-1-yl)-5-oxo-5,6-dihydropyrimido[4,5-d]pyridazin-4-yl)amino)phenyl)piperidin-4-yl)acetic acid], for which the IC50 in experiment [2] is less than 10 nM. In addition, in experiment [3] (setting [5]), the inhibition at 1 µM came to 100% and the EC50 came out at 76 nM. For the same compound, the IC50 in experiment [4] is less than 10 nM.
Consider `CC1(O)CCN(CCc2ccc(Nc3nc(N4CCCCCC4)nc4cn[nH]c(=O)c34)cc2)CC1` [Example 210, 2-(azepan-1-yl)-4-((4-(2-(4-hydroxy-4-methylpiperidin-1-yl)ethyl)phenyl)amino) pyrimido[4,5-d]pyridazin-5(6H)-one], for which, in experiment [2], the IC50 is less than 50 nM. In addition, in experiment [3] (setting [5]), the inhibition at 1 µM stood at 79% and the EC50 is 22 nM. Also, in experiment [4], the IC50 was less than 10 nM.
Regarding `CC(C)(CO)N1CCN(c2ccc(Nc3nc(N4CCC(CC#N)CC4)nc4cn[nH]c(=O)c34)cc2)CC1` [Example 266, 2-(1-(4-((4-(4-(1-hydroxy-2-methylpropan-2-yl)piperazin-1-yl)phenyl)amino)-5-oxo-5,6-dihydropyrimido[4,5-d]pyridazin-2-yl)piperidin-4-yl) acetonitrile], the IC50 in experiment [2] was less than 10 nM. In experiment [3] (setting [5]), the inhibition at 1 µM turned out to be 99% and the concentration giving a half-maximal response (EC50) amounted to 10 nM. In addition, in experiment [4], the IC50 is less than 50 nM.
Consider `O=c1[nH]ncc2nc(-c3ccccc3)nc(Nc3ccc(N4CCOCC4)cc3)c12` [Example 1, 4-(4-morpholinophenylamino)-2-phenylpyrimido[5,4-d]pyridazin-5(6H)-one], for which the IC50 in experiment [2] and in experiment [4] was less than 50 nM in each case. Also, in experiment [3] (Assay Protocol A (24 well format)), the inhibition at 1 µM turned out to be 85%.
As for `CC(C)(CO)N1CCCN(c2ccc(Nc3nc(N4CCC(CC#N)CC4)nc4cn[nH]c(=O)c34)cc2)CC1` [Example 297, 2-(1-(4-((4-(4-(1-hydroxy-2-methylpropan-2-yl)-1,4-diazepan-1-yl)phenyl)amino)-5-oxo-5,6-dihydropyrimido[4,5-d]pyridazin-2-yl)piperidin-4-yl)acetonitrile], the concentration for half-maximal inhibition (IC50) in experiment [2] was less than 10 nM. In experiment [3] (setting [5]), the inhibition at 1 µM amounted to 99% and the concentration for a half-maximal effect (EC50) stood at 18 nM. The IC50 in experiment [4] was less than 50 nM.
